From ChEMBL document CHEMBL1124302, “Nucleoside conjugates. 10. Synthesis and antitumor activity of 1-beta-D-arabinofuranosylcytosine 5'-diphosphate-1,2-dipalmitins” (J Med Chem, 1988)
Where “and” joins values, the source holds several entries; their conditions need not be identical. Equal values may be shown once.

Legend:
Assay type in all cases: functional
[1] = test system: Mus musculus; experiment: Weight change on day 8 in L1210/ara-C (I) Lymphoid Leukemia in mice( ip implanted) at a dose of 60 mg/kg/day (qd=1-5); settings: route intraperitoneal
[2] = species on record: Mus musculus; experiment: Dose producing greatest increase in life span expressed as optimum dose (L1210/ara-C I) (qd 1,5,9)
[3] = test system: Mus musculus; experiment: Weight change on day 8 in L1210/ara-C (I) Lymphoid Leukemia in mice( ip implanted) at a dose of 300 mg/kg/day (qd=1); settings: route intraperitoneal
[4] = test system: Mus musculus; experiment: No of survivors after 45 dose ata dose of 133 mg/kg/day
[5] = test system: Mus musculus; experiment: No of survivors after 45 dose ata dose of 60 mg/kg/day
[6] = species on record: Mus musculus; experiment: Dose producing greatest increase in life span expressed as optimum dose (L1210/ara-C II) (qd 1)
[7] = species on record: Mus musculus; experiment: Percentage increase in life span after 7-8 days
[8] = test system: Mus musculus; experiment: No of survivors after 45 days ata dose of 300 mg/kg/day
[9] = species on record: Mus musculus; experiment: Percentage increase in life span after 8->45 days
[10] = species on record: Mus musculus; experiment: Percentage increase in life span after 35->45 days
[11] = test system: Mus musculus; experiment: No of survivors after 45 days ata dose of 300 60 mg/kg/day
[12] = test system: Mus musculus; experiment: No of survivors after 45 dose ata dose of 300 mg/kg/day
[13] = species on record: Mus musculus; experiment: Percentage increase in life span after 29->45 days
[14] = test system: Mus musculus; experiment: Weight change on day 8 in L1210/ara-C (I) Lymphoid Leukemia in mice( ip implanted) at a dose of 133 mg/kg/day (qd=1,5,9); settings: route intraperitoneal
[15] = species on record: Mus musculus; experiment: Percentage increase in life span after 8-9 days
[16] = test system: Mus musculus; experiment: No of survivors after 45 days ata dose of 80 mg/kg/day
[17] = test system: Mus musculus; experiment: Weight change on day 8 in L1210/ara-C (I) Lymphoid Leukemia in mice( ip implanted) at a dose of 400 mg/kg/day (qd=1); settings: route intraperitoneal
[18] = test system: Mus musculus; experiment: Weight change on day 8 in L1210/ara-C (I) Lymphoid Leukemia in mice( ip implanted) at a dose of 80 mg/kg/day (qd=1-5); settings: route intraperitoneal
[19] = species on record: Mus musculus; experiment: Percentage increase in life span after 17-29 days
[20] = species on record: Mus musculus; experiment: Percentage increase in life span after 17-35 days
[21] = test system: Mus musculus; experiment: No of survivors after 45 days ata dose of 400 mg/kg/day
[22] = test system: Mus musculus; experiment: No of survivors after 45 days ata dose of 19 and 38 mg/kg/day
[23] = test system: Mus musculus; experiment: Weight change on day 8 in L1210/ara-C (I) Lymphoid Leukemia in mice( ip implanted) at a dose of 95 and 190 mg/kg/day (qd=1); settings: route intraperitoneal
[24] = species on record: Mus musculus; experiment: Percentage increase in life span after 9-11 days
[25] = test system: Mus musculus; experiment: No of survivors after 45 days ata dose of 95 and 190 mg/kg/day
[26] = species on record: Mus musculus; experiment: Percentage increase in life span after 7-14 days
[27] = test system: Mus musculus; experiment: Weight change on day 8 in L1210/ara-C (I) Lymphoid Leukemia in mice( ip implanted) at a dose of 19 and 38 mg/kg/day (qd=1-5); settings: route intraperitoneal
[28] = species on record: Mus musculus; experiment: Percentage increase in life span after 10 days
[29] = test system: Mus musculus; experiment: Weight change on day 8 in L1210/ara-C (I) Lymphoid Leukemia in mice( ip implanted) at a dose of 95 and 190 mg/kg/day; settings: route intraperitoneal
[30] = test system: Mus musculus; experiment: weight change on day 8 in L1210/ara-C (I) Lymphoid Leukemia in mice( ip implanted) at a dose of 19 and 38 mg/kg/day; settings: route intraperitoneal
[31] = species on record: Mus musculus; experiment: Percentage increase in life span after 11-12 days
[32] = test system: Mus musculus; experiment: No of survivors after 45 days ata dose of 100 mg/kg/day
[33] = species on record: Mus musculus; experiment: Percentage increase in life span after 13-15 days
[34] = test system: Mus musculus; experiment: weight change on day 8 in L1210/ara-C (I) Lymphoid Leukemia in mice( ip implanted) at a dose of 100 mg/kg/day (qd=1,5,9); settings: route intraperitoneal
[35] = test system: Mus musculus; experiment: No of survivors after 45 days at a dose of 400 mg/kg/day
[36] = test system: Mus musculus; experiment: weight change on day 8 in L1210/ara-C (I) Lymphoid Leukemia in mice( ip implanted) at a dose of 60 mg/kg/day (qd=1-5); settings: route intraperitoneal
[37] = test system: Mus musculus; experiment: No of survivors after 45 days ata dose of 60 mg/kg/day
[38] = species on record: Mus musculus; experiment: Percentage increase in life span after 9-12 days
[39] = species on record: Mus musculus; experiment: Percentage increase in life span after 12-13days
[40] = test system: Mus musculus; experiment: (§1) No of survivors after 45 days at a dose of 60 mg/kg/day
[41] = test system: Mus musculus; experiment: as §1; remark: listed apart in the source
[42] = species on record: Mus musculus; experiment: Percentage increase in life span after 17-21 days
[43] = test system: Mus musculus; experiment: Weight change on day 8 in L1210/ara-C (I) Lymphoid Leukemia in mice( ip implanted) at a dose of 200 mg/kg/day (qd=1); settings: route intraperitoneal
[44] = species on record: Mus musculus; experiment: Dose producing greatest increase in life span expressed as optimum dose (L1210/ara-C I) (qd 1-9)
[45] = test system: Mus musculus; experiment: Weight change on day 8 in L1210/ara-C (I) Lymphoid Leukemia in mice( ip implanted) at a dose of 60 mg/kg/day (qd=1-9); settings: route intraperitoneal
[46] = species on record: Mus musculus; experiment: Dose producing greatest increase in life span expressed as optimum dose (L1210/ara-C I) (qd 1)
[47] = species on record: Mus musculus; experiment: Percentage increase in life span after 7 days
[48] = test system: Mus musculus; experiment: No of survivors after 45 days at a dose of 300 mg/kg/day
[49] = test system: Mus musculus; experiment: (§2) No of survivors after 45 days at a dose of 100 mg/kg/day
[50] = test system: Mus musculus; experiment: Weight change on day 8 in L1210/ara-C (I) Lymphoid Leukemia in mice( ip implanted) at a dose of 100 mg/kg/day (qd=1,5,9); settings: route intraperitoneal
[51] = species on record: Mus musculus; experiment: Percentage increase in life span after 15-18 days
[52] = species on record: Mus musculus; experiment: Dose producing greatest increase in life span expressed as optimum dose (L1210/ara-C I) (qd 1-5)
[53] = test system: Mus musculus; experiment: Weight change on day 8 in L1210/ara-C (I) Lymphoid Leukemia in mice( ip implanted) at a dose of 60 mg/kg/day (qd=1-15); settings: route intraperitoneal
[54] = test system: Mus musculus; experiment: (§3) No of survivors after 45 days at a dose of 200 mg/kg/day
[55] = test system: Mus musculus; experiment: as §3; remark: listed apart in the source
[56] = species on record: Mus musculus; experiment: Dose producing greatest increase in life span expressed as optimum dose (L1210/ara-C II) (qd 1-5)
[57] = test system: Mus musculus; experiment: as §2; remark: listed apart in the source
[58] = species on record: Mus musculus; experiment: Dose producing greatest increase in life span expressed as optimum dose (L1210/ara-C I) (qd 1-15)

CCCCCCCCCCCCCCCC(=O)OC[C@H](COP(=O)(O)OP(=O)(O)OC[C@H]1O[C@@H](n2ccc(N)nc2=O)[C@@H](O)[C@@H]1O)OC(=O)CCCCCCCCCCCCCCC
Weight change [1]: -2.72 g mouse-1
Optimal dose [2]: 133 mg·µM/kg
Weight change [3]: -0.04 g mouse-1
No. of survivors [4]: 5
No. of survivors [5]: 5
Optimal dose [6]: 300 mg·µM/kg
ILS [7]: -11%
No. of survivors [8]: 0
ILS [9]: >400%
ILS [10]: >374%
No. of survivors [11]: 0
No. of survivors [12]: 4
ILS [13]: >400%
Weight change [14]: -0.53 g mouse-1
ILS [15]: -11%

CCCCCCCCCCCCCCCC(=O)OC[C@@H](COP(=O)(O)OP(=O)(O)OC[C@H]1O[C@@H](n2ccc(N)nc2=O)[C@@H](O)[C@@H]1O)OC(=O)CCCCCCCCCCCCCCC
No. of survivors [16]: 0
Weight change [17]: 0.18 g mouse-1
Weight change [18]: -0.48 g mouse-1
ILS [19]: 121%
ILS [20]: 100%
No. of survivors [21]: 0

CCCCCCCCCCCCCCCC(=O)OC[C@H](COP(=O)(O)O)OC(=O)CCCCCCCCCCCCCCC.Nc1ccn([C@@H]2O[C@H](COP(=O)(O)O)[C@@H](O)[C@@H]2O)c(=O)n1
No. of survivors [22]: 0
Weight change [23]: -0.5 g mouse-1
ILS [24]: 5%
No. of survivors [25]: 0
ILS [26]: 16%
Weight change [27]: -1.08 g mouse-1

CCCCCCCCCCCCCCCC(=O)OC[C@@H](COP(=O)(O)O)OC(=O)CCCCCCCCCCCCCCC.Nc1ccn([C@@H]2O[C@H](COP(=O)(O)O)[C@@H](O)[C@@H]2O)c(=O)n1
ILS [28]: 5%
No. of survivors [22]: 0
Weight change [29]: -0.82 g mouse-1
Weight change [30]: -1.58 g mouse-1
No. of survivors [25]: 0
ILS [31]: 16%

CCCCCCCCCCCCCCCC(=O)OCC(COP(=O)(O)OP(=O)(O)OC[C@H]1O[C@@H](n2ccc(N)nc2=O)[C@@H](O)[C@@H]1O)OC(=O)CCCCCCCCCCCCCCC (mixture of isomers)
No. of survivors [32]: 2
Optimal dose [2]: 100 mg·µM/kg
ILS [33]: 233%
Weight change [34]: -1.35 g mouse-1
Weight change [17]: -2.07 g mouse-1
No. of survivors [35]: 4
Weight change [36]: -2.92 g mouse-1
No. of survivors [37]: 2
ILS [38]: >400%
ILS [39]: 317%

Nc1ccn([C@@H]2O[C@H](CO)[C@@H](O)[C@@H]2O)c(=O)n1 [CYTARABINE]
Weight change [1]: -0.87 g mouse-1
Optimal dose [2]: 100 µM/kg
ILS [33]: 65%
No. of survivors [40]: 0
No. of survivors [41]: 0
ILS [42]: 147%
Weight change [43]: 3.6 g mouse-1
Optimal dose [44]: 60 µM/kg
Weight change [45]: -1.8 g mouse-1
Optimal dose [46]: 200 µM/kg
ILS [47]: -22%
No. of survivors [48]: 0
No. of survivors [49]: 0
Weight change [50]: 2.6 g mouse-1
ILS [51]: 82%
Optimal dose [52]: 60 µM/kg
Weight change [53]: -0.93 g mouse-1
No. of survivors [54]: 0
ILS [7]: -22% and -11%
No. of survivors [55]: 0
Optimal dose [56]: 100 µM/kg and 200 µM/kg and 300 µM/kg
No. of survivors [57]: 0
ILS [38]: 17%
ILS [39]: 50%
Optimal dose [58]: 60 µM/kg
